Read-outs that look alike come from different tables or passages of the source.
Key:
GP2D cells = assay: Ras cellular assay, cell proliferation GP2D; assay type: cell-based
Method in brief: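 GP2D cells (G12D Ras mutant) seeded (e.g., 800/well) and treated the next day with a dilution series (e.g., 9-point, 3-fold). After approximately 5 days, viability measured by CellTiter-Glo luminescence; IC50 from four-parameter fit.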

SW620 cells = assay: Ras cellular assay, cell proliferation SW620; assay type: cell-based; settings: Homo sapiens, SW-620
From the text: For example, this assay can be also used to assess selective growth inhibition of a mutant Ras protein relative to a wildtype, or relative to a different mutant Ras protein.

wildtype K-Ras = target: T1, wildtype K-Ras (Homo sapiens, UniProt P01116); assay: PPI-HTRF assay, wildtype K-Ras / SOS1 interaction; assay type: biochemical
T1 construct: made in house; host or cells: E. coli, e.g. BL21 (DE3)
Method in brief: (§1)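 GST-tagged K-Ras (WT or mutant) bound to anti-GST-Eu was mixed with His-hSOS1 bound to anti-6His-XL665 in pH 7.4 HEPES/NaCl/DTT/BSA/Igepal buffer. After ~10 min or longer, HTRF was read (ex 337 nm, em 620/665 nm). IC50 was derived from the 665/620 ratio, with duplicates tested from 10 μM down to 0.01 μM.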

K-Ras G12D = target: T2, K-Ras G12D (Homo sapiens, UniProt P01116, G12D); assay: PPI-HTRF assay, K-Ras G12D / SOS1 interaction; assay type: biochemical
T2 construct: made in house; host or cells: E. coli, e.g. BL21 (DE3)
Method in brief: as §1

A549 cells = assay: Ras cellular assay, cell proliferation A549; assay type: cell-based; settings: Homo sapiens
Method in brief: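 G12S-mutant A549 cells (800/well) in RPMI-1640 plus 10% heat-inactivated FBS, standard or ultra-low attachment 384-well plates, dosed the day after plating with a 10-point 3-fold series. Viability by CellTiter-Glo luminescence about 6 days later; IC50 from four-parameter fit.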

K-Ras G12S = target: T3, K-Ras G12S (Homo sapiens, UniProt P01116, G12S); assay: PPI-HTRF assay, K-Ras G12S / SOS1 interaction; assay type: biochemical
T3 construct: made in house; host or cells: E. coli, e.g. BL21 (DE3)
Method in brief: as §1

K-Ras G12V = target: T4, K-Ras G12V (Homo sapiens, UniProt P01116, G12V); assay: PPI-HTRF assay, K-Ras G12V / SOS1 interaction; assay type: biochemical
T4 construct: made in house; host or cells: E. coli, e.g. BL21 (DE3)
Method in brief: as §1

[1] = HTRF, K-Ras wt, read-out: PPI-HTRF-5 nM (K-Ras wt IC50)
[2] = HTRF, K-Ras G12D, read-out: PPI-HTRF-5 nM (K-Ras G12D IC50)
[3] = read-out: PPI-HTRF-5 nM (K-Ras G12S IC50)
[4] = HTRF, K-Ras G12V, read-out: PPI-HTRF-5 nM (K-Ras G12V IC50)

T2 sequence (P01116 1-188 isoform P01116-2 G12D): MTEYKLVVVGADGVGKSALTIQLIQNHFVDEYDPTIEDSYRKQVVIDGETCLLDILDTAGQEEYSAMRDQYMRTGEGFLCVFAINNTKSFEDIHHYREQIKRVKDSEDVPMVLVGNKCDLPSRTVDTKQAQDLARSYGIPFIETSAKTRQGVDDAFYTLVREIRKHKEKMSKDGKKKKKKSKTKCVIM
T4 sequence (P01116 1-188 isoform P01116-2 G12V): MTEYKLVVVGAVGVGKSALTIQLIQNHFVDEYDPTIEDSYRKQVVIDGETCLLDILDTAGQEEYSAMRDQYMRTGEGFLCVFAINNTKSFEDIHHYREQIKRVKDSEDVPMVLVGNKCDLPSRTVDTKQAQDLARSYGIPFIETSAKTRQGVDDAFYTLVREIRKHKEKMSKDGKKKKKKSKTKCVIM
T3 sequence (P01116 1-188 isoform P01116-2 G12S): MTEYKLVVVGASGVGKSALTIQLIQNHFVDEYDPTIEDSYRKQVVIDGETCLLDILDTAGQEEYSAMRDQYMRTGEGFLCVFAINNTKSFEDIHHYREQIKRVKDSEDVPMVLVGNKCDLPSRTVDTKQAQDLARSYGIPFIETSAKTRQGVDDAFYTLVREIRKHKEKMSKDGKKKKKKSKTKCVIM
T1 sequence (P01116 1-188 isoform P01116-2): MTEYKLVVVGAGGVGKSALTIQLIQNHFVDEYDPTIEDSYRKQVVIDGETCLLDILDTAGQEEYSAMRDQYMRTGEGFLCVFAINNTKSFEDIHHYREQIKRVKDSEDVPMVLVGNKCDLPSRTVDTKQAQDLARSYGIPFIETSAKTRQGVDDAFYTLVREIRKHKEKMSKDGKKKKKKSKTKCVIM

Row | Compound | IC50 (GP2D cells) | IC50 (SW620 cells) | IC50 (wildtype K-Ras) | IC50 (K-Ras G12D) | IC50 (A549 cells) | IC50 (K-Ras G12S; PPI-HTRF-5 nM (K-Ras G12S IC50)) | IC50 (K-Ras G12V) | IC50 (wildtype K-Ras; [1]) | IC50 (K-Ras G12D; [2]) | IC50 (K-Ras G12S; [3]) | IC50 (K-Ras G12V; [4])
1 | CN1c2nc(OC[C@@]34CCCN3C[C@H](F)C4)nc3c(F)c(-c4ccc(F)c5sc(N)c(C#N)c45)c(Cl)c(c23)OC2CN(C(=O)C3N[C@H]3C3CC3)CC21 (stereo partly drawn) [compound 108, 2-amino-4-(6-chloro-9-((3S)-3-cyclopropylaziridine-2-carbonyl)-4-fluoro-2-(((2R,7aS)-2-fluorotetrahydro-1H-pyrrolizin-7a(5H)-yl)methoxy)-11-methyl-7a,8,9,10,10a,11-hexahydropyrrolo[3′,4′:2,3][1,4]oxazepino [5,6,7-de]quinazolin-5-yl)-7-fluorobenzo[b]thiophene-3-carbonitrile] | < 5 µM | > 5 µM | < 5 µM | < 5 µM | > 5 µM | < 5 µM | < 5 µM |  |  |  | 
2 | N#Cc1c(N)sc2c(F)ccc(-c3c(Cl)c4c5c(nc(OC[C@@]67CCCN6C[C@H](F)C7)nc5c3F)N3[C@H](CCO4)C[C@@H]4OCC[C@@H]43)c12 [compound 200, 2-amino-4-((6aR,7aS,10aS)-3-chloro-1-fluoro-13-(((2R,7aS)-2-fluorotetrahydro-1H-pyrrolizin-7a(5H)-yl)methoxy)-5,6,6a,7,7a,9,10,10a-octahydrofuro[2″,3″:4′,5′]pyrrolo[1′,2′:5,6][1,5]oxazocino[4,3,2-de]quinazolin-2-yl)-7-fluorobenzo[b]thiophene-3-carbonitrile] | < 5 µM | < 5 µM |  |  | < 5 µM |  |  | < 5 µM | < 5 µM | < 5 µM | < 5 µM
3 | N#CCC1CCC2COc3c(Cl)c(-c4ccc(F)c5sc(N)c(C#N)c45)c(F)c4nc(OC[C@@]56CCCN5C[C@H](F)C6)nc(c34)N12 (stereo partly drawn) [compound 107, 2-amino-4-(6-chloro-11-(cyanomethyl)-4-fluoro-2-(((2R,7aS)-2-fluorotetrahydro-1H-pyrrolizin-7a(5H)-yl)methoxy)-8a,9,10,11-tetrahydro-8H-pyrrolo[2′,1′:3,4][1,4]oxazepino[5,6,7-de]quinazolin-5-yl)-7-fluorobenzo[b]thiophene-3-carbonitrile] | < 5 µM | < 5 µM |  |  | < 5 µM |  |  | < 5 µM | < 5 µM | < 5 µM | < 5 µM
4 | N#Cc1c(N)sc2c(F)ccc(-c3c(Cl)c4c5c(nc(OC[C@@]67CCCN6C[C@H](F)C7)nc5c3F)N3CCC[C@H]3CCO4)c12 [compound 115, 2-amino-4-((13aS)-10-chloro-8-fluoro-6-(((2R,7aS)-2-fluorotetrahydro-1H-pyrrolizin-7a(5H)-yl)methoxy)-1,2,3,12,13,13a-hexahydropyrrolo[1′,2′:5,6][1,5]oxazocino [4,3,2-de]quinazolin-9-yl)-7-fluorobenzo[b]thiophene-3-carbonitrile] | < 5 µM | < 5 µM |  |  | < 5 µM |  |  | < 5 µM | < 5 µM | < 5 µM | < 5 µM
5 | CN1c2nc(OC[C@@]34CCCN3C[C@H](F)C4)nc3c(F)c(-c4ccc(F)c5sc(N)c(C#N)c45)c(Cl)c(c23)OC2CN(C=O)CC21 (stereo partly drawn) [compound 126, 2-amino-4-(6-chloro-4-fluoro-2-(((2R,7aS)-2-fluorotetrahydro-1H-pyrrolizin-7a(5H)-yl)methoxy)-9-formyl-11-methyl-7a,8,9,10,10a,11-hexahydropyrrolo[3′,4′:2,3][1,4]oxazepino[5,6,7-de]quinazolin-5-yl)-7-fluorobenzo[b]thiophene-3-carbonitrile] | < 5 µM | < 5 µM |  |  | < 5 µM |  |  | < 5 µM | < 5 µM | < 5 µM | < 5 µM
6 | N#Cc1c(N)sc2c(F)ccc(-c3c(Cl)c4c5c(nc(OCC67CCCN6C[C@H](F)C7)nc5c3F)N3CCC(O)CC3CO4)c12 (stereo partly drawn) [compound 132, 2-amino-4-(3-chloro-1-fluoro-12-(((2R,7aS)-2-fluorotetrahydro-1H-pyrrolizin-7a(5H)-yl)methoxy)-7-hydroxy-5,5a,6,7,8,9-hexahydropyrido[2′,1′:3,4][1,4]oxazepino[5,6,7-de]quinazolin-2-yl)-7-fluorobenzo[b]thiophene-3-carbonitrile] | < 5 µM | < 5 µM |  |  | < 5 µM |  |  | < 5 µM | < 5 µM | < 5 µM | < 5 µM
7 | CN1c2nc(OC[C@@]34CCCN3C[C@H](F)C4)nc3c(F)c(-c4ccc(F)c5sc(N)c(C#N)c45)c(Cl)c(c23)OCC2CN(C(=O)C(F)F)CC21 (stereo partly drawn) [compound 120, 2-amino-4-(6-chloro-10-(2,2-difluoroacetyl)-4-fluoro-2-(((2R,7aS)-2-fluorotetrahydro-1H-pyrrolizin-7a(5H)-yl)methoxy)-12-methyl-8a,9,10,11,11a,12-hexahydro-8H-pyrrolo[3′,4′:6,7][1,5]oxazocino[4,3,2-de]quinazolin-5-yl)-7-fluorobenzo[b]thiophene-3-carbonitrile] | < 5 µM | < 5 µM |  |  | > 5 µM |  |  | < 5 µM | < 5 µM | < 5 µM | < 5 µM
8 | COC1CCC2COc3c(Cl)c(-c4ccc(F)c5sc(N)c(C#N)c45)c(F)c4nc(OC[C@@]56CCCN5C[C@H](F)C6)nc(c34)N2C1 (stereo partly drawn) [compound 182, 2-amino-4-(6-chloro-4-fluoro-2-(((2R,7aS)-2-fluorotetrahydro-1H-pyrrolizin-7a(5H)-yl)methoxy)-11-methoxy-8,8a,9,10,11,12-hexahydropyrido[2′,1′:3,4][1,4]oxazepino [5,6,7-de]quinazolin-5-yl)-7-fluorobenzo[b]thiophene-3-carbonitrile] | < 5 µM | < 5 µM |  |  | < 5 µM |  |  | < 5 µM | < 5 µM | < 5 µM | < 5 µM
9 | N#Cc1c(N)sc2c(F)ccc(-c3c(Cl)c4c5c(nc(OCC67CCCN6C[C@H](F)C7)nc5c3F)N3CC(CO)CCC3CO4)c12 (stereo partly drawn) [compound 215, 2-amino-4-(6-chloro-4-fluoro-2-(((2R)-2-fluorotetrahydro-1H-pyrrolizin-7a(5H)-yl)methoxy)-11-(hydroxymethyl)-8,8a,9,10,11,12-hexahydropyrido[2′,1′:3,4][1,4]oxazepino [5,6,7-de]quinazolin-5-yl)-7-fluorobenzo[b]thiophene-3-carbonitrile] | < 5 µM | < 5 µM |  |  | < 5 µM |  |  | < 5 µM | < 5 µM | < 5 µM | < 5 µM
10 | CCN1c2nc(OC[C@@]34CCCN3C[C@H](F)C4)nc3c(F)c(-c4ccc(F)c5sc(N)c(C#N)c45)c(Cl)c(c23)OCC2COCC21 (stereo partly drawn) [compound 186, 2-amino-4-(6-chloro-12-ethyl-4-fluoro-2-(((2R,7aS)-2-fluorotetrahydro-1H-pyrrolizin-7a(5H)-yl)methoxy)-8a,9,11a,12-tetrahydro-8H,11H-furo[3′,4′:6,7][1,5]oxazocino[4,3,2-de]quinazolin-5-yl)-7-fluorobenzo[b]thiophene-3-carbonitrile] | < 5 µM | < 5 µM |  |  | < 5 µM |  |  | < 5 µM | < 5 µM | < 5 µM | < 5 µM

— US12059425B2, “Heterocyclic compounds and uses thereof” (Kumquat Biosciences Inc., priority 2022, dated 2024)
